Test results reported in US20150289514A1 (priority 2012, published 2015).

How the values were obtained:
Type in all cases: in vivo
Phytophthora infestans = settings: tomatoes, preventive spray, 1 ppm a.i., evaluated 3 days after inoculation
Alternaria solani = assay: Alternaria test (tomatoes)/preventive; settings: preventive spray, evaluated 3 days after inoculation
Venturia inaequalis = assay: Venturia test (apples)/preventive; settings: preventive spray, evaluated 10 days after inoculation

| SMILES | Efficacy in % found (Phytophthora infestans) [%] | Efficacy in % found (Alternaria solani; 1 ppm a.i.) [%] | Efficacy in % found (Alternaria solani; 0.5 ppm a.i.) [%] | Efficacy in % found (Venturia inaequalis; 1 ppm a.i.) [%] | Efficacy in % found (Venturia inaequalis; 0.25 ppm a.i.) [%] |
| --- | --- | --- | --- | --- | --- |
| CO/C=C(/C(=O)OC)c1ccccc1Oc1cc(Oc2ccccc2C#N)ncn1 [F107, azoxystrobin] | 61 | 39 | – | – | – |
| CSC1=N[C@@](C)(c2ccccc2)C(=O)N1Nc1ccccc1 [F114, fenamidone] | 37 | – | – | – | – |
| COC(=O)N(OC)c1ccccc1COc1ccn(-c2ccc(Cl)cc2)n1 [F121, pyraclostrobin] | – | – | 30 | 65 | – |
| CON=C(C(=O)OC)c1ccccc1CON=C(C)c1cccc(C(F)(F)F)c1 [F126, trifloxystrobin] | – | 38 | – | – | 60 |
